Measurements taken from US20100029685A1 (NeuroSearch A/S, priority 2006, published 2010).
pEC50: −log10 of the molar value.

Experiments:
[1] = molecular target: T1, human nicotinic acetylcholine receptor subtype α4β2 (Homo sapiens, UniProt P17787+P43681); assay: FLIPR nAChR α4β2 positive allosteric modulator activity; assay type: cell-based; settings: HEK-293 cells stably expressing hα4β2; for Efficacy Response relative to Nicotine (%): maximal positively modulated response relative to maximal nicotine response (100 μM); for pEC50: positive modulation of response to sub-maximal nicotine (EC20-30), peak values
T1 construct: expressed in transfected cells
T1 sequence (P43681 29-627 limits assumed): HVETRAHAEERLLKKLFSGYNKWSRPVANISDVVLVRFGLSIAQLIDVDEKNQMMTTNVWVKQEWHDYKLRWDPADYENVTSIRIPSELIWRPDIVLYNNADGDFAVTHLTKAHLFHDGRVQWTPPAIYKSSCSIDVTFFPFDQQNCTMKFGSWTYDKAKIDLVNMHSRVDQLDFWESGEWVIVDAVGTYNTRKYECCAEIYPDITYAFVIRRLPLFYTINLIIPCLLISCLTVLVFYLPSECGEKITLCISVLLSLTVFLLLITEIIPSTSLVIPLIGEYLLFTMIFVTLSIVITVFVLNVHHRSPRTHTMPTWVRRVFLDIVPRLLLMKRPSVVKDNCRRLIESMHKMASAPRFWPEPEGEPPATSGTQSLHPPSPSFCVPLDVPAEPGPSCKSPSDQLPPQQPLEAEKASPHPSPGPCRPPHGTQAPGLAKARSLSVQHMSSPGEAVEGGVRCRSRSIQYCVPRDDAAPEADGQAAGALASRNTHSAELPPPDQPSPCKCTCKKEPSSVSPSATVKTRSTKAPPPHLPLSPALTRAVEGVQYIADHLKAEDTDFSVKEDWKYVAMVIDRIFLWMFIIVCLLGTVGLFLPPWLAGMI
T1 sequence (P17787 26-502): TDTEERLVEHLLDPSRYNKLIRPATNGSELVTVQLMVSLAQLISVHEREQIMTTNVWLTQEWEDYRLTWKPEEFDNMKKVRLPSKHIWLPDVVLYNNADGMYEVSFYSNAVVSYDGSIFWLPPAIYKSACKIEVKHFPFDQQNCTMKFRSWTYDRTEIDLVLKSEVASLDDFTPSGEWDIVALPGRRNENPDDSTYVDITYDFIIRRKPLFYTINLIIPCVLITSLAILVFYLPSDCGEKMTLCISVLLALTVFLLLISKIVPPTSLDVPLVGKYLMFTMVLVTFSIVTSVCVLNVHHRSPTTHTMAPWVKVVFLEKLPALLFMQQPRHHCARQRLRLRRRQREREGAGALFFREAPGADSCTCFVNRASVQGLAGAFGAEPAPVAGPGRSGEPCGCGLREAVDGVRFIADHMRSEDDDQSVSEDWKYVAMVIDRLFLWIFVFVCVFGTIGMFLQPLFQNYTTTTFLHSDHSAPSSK
Protocol: Characterization of hα4β2 Positive Allosteric Modulators Using FLIPR
The ability is determined relative to a maximal nicotine response (100 μM). The activity is determined as a fluorescence-based assay using a Fluorometric Imaging Plate Reader (FLIPR) as described below in more detail.
Full concentration/response curves are generated and EC50 values are calculated based on peak values. EC50 values (Effective Concentration) represent the concentration of the test substance, at which the nicotine-induced EC20-30 response is positively modulated such that the size of the response equals 50% of the maximal response. The maximal positively modulated response (efficacy) is determined relative to the reference (nicotine) response.

Structure (SMILES)	Efficacy Response relative to Nicotine (%) [1] [%]	pEC50 [1]	melting point [°C]
N#Cc1cccc(-c2nnc(-c3cccnc3)o2)c1 [Compound 7.1, 3-(5-Pyridine-3-yl-[1,3,4]oxadiazol-2-yl)-benzonitrile]	133	6.28	
O=[N+]([O-])c1ccc(-c2nnc(-c3cccnc3)o2)o1 [Compound 7.2, 3-(5-{5-Nitro-furan-2-yl}-[1,3,4]oxadiazol-2-yl)-pyridine]			165 to 168
N#Cc1ccc(-c2nnc(-c3cccnc3)o2)s1 [Compound 7.6]	153	6.01	
N#Cc1cccc(-c2nnc(-c3cccc(C#N)c3)s2)c1 [Compound 8.2, 3-(5-{3-Cyano-phenyl}-[1,3,4]thiadiazol-2-yl)-benzonitrile]			217 to 223
